Experimental data published in the supplement of paper PMC10307832.

Assays:
Experiment in all cases: relative viability (nuclei count vs DMSO), 5 days (fraction); higher = more cells survive
[1] = compound: Cn1c(Nc2ccc(C(F)(F)F)cc2)nc2cc(Oc3ccnc(-c4ncc(C(F)(F)F)[nH]4)c3)ccc21 [RAF265] + COc1cccc2cc(-c3nc([C@H]4CC[C@H](C(=O)O)CC4)n4ncnc(N)c34)[nH]c12 [OSI-027] (partner 0.5 µM)
Summary of the method: (§1)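 Nuclei were stained with Hoechst during a one-step fixation (final 0.05% Triton X-100, 1% formaldehyde, 1 ug/ml Hoechst) carried out 5 days after dosing, then counted on 4× images. The cells, lung cancer lines in 1536-well plates, had been dosed by pin tool the day after seeding with one drug alone or a fixed anchor-drug dose plus five library-drug doses (not always all listed) in √10 steps. Relative viability is the nuclei count in treated wells divided by that in vehicle wells, and each value is the median of duplicate plates.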

[2] = compound: Cn1c(Nc2ccc(C(F)(F)F)cc2)nc2cc(Oc3ccnc(-c4ncc(C(F)(F)F)[nH]4)c3)ccc21 [RAF265] + NC(=O)Nc1cc(-c2cccc(F)c2)sc1C(=O)N[C@H]1CCCNC1 [AZD7762] (partner 0.2 µM)
Summary of the method: as §1

[3] = compound: Cn1c(Nc2ccc(C(F)(F)F)cc2)nc2cc(Oc3ccnc(-c4ncc(C(F)(F)F)[nH]4)c3)ccc21 [RAF265] + Nc1nc2[nH]cc(CCc3ccc(C(=O)N[C@@H](CCC(=O)O)C(=O)O)cc3)c2c(=O)[nH]1 [Pemetrexed] (partner 0.2 µM)
Summary of the method: as §1

[4] = compound: Cc1ccc(-n2nc(C(C)(C)C)cc2NC(=O)Nc2ccc(OCCN3CCOCC3)c3ccccc23)cc1 [Doramapimod] + C[C@]1(O)C[C@@H](c2nc(-c3ccc4ccc(-c5ccccc5)nc4c3)c3c(N)nccn32)C1 [Linsitinib] (partner 1 µM)
Summary of the method: as §1

Cell Line | relative viability ([1]; first compound 0.01 µM) | relative viability ([1]; first compound 0.03162 µM) | relative viability ([1]; first compound 0.1 µM) | relative viability ([1]; first compound 0.3162 µM) | relative viability ([1]; first compound 1 µM) | relative viability ([2]; first compound 0.01 µM) | relative viability ([2]; first compound 0.03162 µM) | relative viability ([2]; first compound 0.1 µM) | relative viability ([2]; first compound 0.3162 µM) | relative viability ([2]; first compound 1 µM) | relative viability ([3]; first compound 0.01 µM) | relative viability ([3]; first compound 0.03162 µM) | relative viability ([3]; first compound 0.1 µM) | relative viability ([3]; first compound 0.3162 µM) | relative viability ([3]; first compound 1 µM) | relative viability ([4]; first compound 0.02 µM) | relative viability ([4]; first compound 0.06325 µM) | relative viability ([4]; first compound 0.2 µM) | relative viability ([4]; first compound 0.6325 µM) | relative viability ([4]; first compound 2 µM)
NCI-H522 | 0.79 | 0.741 | 0.655 | 0.541 | 0.628 | 0.801 | 0.872 | 0.887 | 0.985 | 0.897 | 0.922 | 1.15 | 1.09 | 1.13 | 1 |  |  |  |  | 
NCI-H1944 | 0.516 | 0.5 | 0.357 | 0.317 | 0.237 | 0.75 | 0.617 | 0.512 | 0.448 | 0.365 | 0.849 | 0.859 | 0.632 | 0.405 | 0.472 | 1.05 | 1.14 | 1.03 | 1.31 | 1.08
NCI-H727 | 0.7 | 0.8 | 0.487 | 0.438 | 0.347 | 0.471 | 0.67 | 0.576 | 0.494 | 0.606 |  |  |  |  |  | 0.166 | 0.221 | 0.366 | 0.317 | 0.278
NCI-H1650 | 0.631 | 0.598 | 0.8 | 0.456 | 0.649 |  |  |  |  |  | 0.336 | 0.362 | 0.431 | 0.324 | 0.369 |  |  |  |  | 
HCC-827 | 0.754 | 0.783 | 0.708 |  | 0.649 | 0.213 | 0.357 | 0.215 |  | 0.197 | 0.281 | 0.24 | 0.214 |  | 0.278 | 1 | 0.918 | 0.952 | 0.933 | 0.752
HCC-366 | 1.04 | 0.939 | 0.834 | 0.165 | 0.107 | 0.25 | 0.253 | 0.396 | 0.321 | 0.157 | 0.153 | 0.146 | 0.185 | 0.208 | 0.132 | 0.561 | 0.515 | 0.475 | 0.673 | 0.548
HARA | 0.491 | 0.417 | 0.423 | 0.187 | 0.101 | 0.315 | 0.128 | 0.303 | 0.419 | 0.221 | 0.269 | 0.275 | 0.239 | 0.218 | 0.259 | 0.943 | 0.901 | 0.904 | 0.987 | 0.805
NCI-H322M | 0.589 | 0.519 | 0.41 | 0.358 | 0.186 | 0.55 | 0.717 | 0.493 | 0.381 | 0.404 | 0.587 | 0.605 | 0.472 | 0.357 | 0.335 | 0.851 | 0.834 | 0.909 | 1.01 | 0.874
LXF-289 | 0.836 | 0.813 | 0.59 | 0.326 | 0.2 | 1.12 | 1.26 | 1.24 | 0.849 | 0.871 | 0.95 | 0.841 | 0.917 | 0.776 | 0.764 | 0.961 | 0.92 | 0.896 | 0.933 | 0.939
